Structures can show the parent of a compound that is named as a salt. Where two headings read alike, the source gives them in different places.
Experiments:
Type in all cases: biochemical
E. coli Topoisomerase IV = target: T1, E. coli Topoisomerase IV (Escherichia coli, UniProt P0AFI2+P20083); assay: Topoisomerase IV decatenation assay (E. coli); conditions: for inhibition at 50 µM: E. coli, conc. 50 μM, n/a = not active, read-out: % inhibition Topo IV
T1 construct: purchased Inspiralis, UK
Procedure: (§1) The above compounds were tested for the inhibition of the enzyme DNA gyrase in a gyrase supercoiling assay and for the inhibition of the enzyme topoisomerase IV in a decatenation assay, in both Gram positive and Gram negative bacteria, according to the following methods.
(§2) Both the assays were carried out according to a set-up method modified from the article to Blanche F, et al. “Differential Behaviors of Staphylococcus aureus and Escherichia coli Type II DNA Topoisomerases”, Antimicrob. Agents Chemother., 1996, Vol. 40, No. 12 p. 2714-2720.
(§3) The compounds were screened at single concentration (200, 100 or 50 μM), in duplicate.
(§4) S. aureus and E. coli Topoisomerase IV decatenation kits (Inspiralis, UK) were used. A master mix with a total volume sufficient for the number of reactions to perform was prepared with the following reagents: 5× assay buffer (50 mM HEPES-KOH (pH 7.6), 100 mM potassium glutamate, 10 mM magnesium acetate, 10 mM DTT, 1 mM ATP, 50 μg/ml albumin), kDNA substrate (200 ng/reaction), RNase-DNase free water. Aliquots of this mix were dispensed in each tube, then 10× compound stock solutions or vehicle control (DMSO), were added in each reaction tube.
(§5) Reaction was started with Topoisomerase IV enzyme (0.5 U/reaction) addition.
(§6) A sample added with an equal volume of dilution buffer was used as negative control (without enzyme).
(§7) The reaction tubes were gentle vortexed and incubated 30 minutes at 37° C. Each reaction was stopped by adding 30 μl of Stop Buffer and 30 μl of chloroform/isoamyl alcohol (24/1), briefly vortexed for 5-10 seconds and centrifuged at 20000×g for 2 minutes. Samples taken from the upper phase were loaded into 1% agarose gel and subjected to electrophoresis for 1 hour at 80V constant voltage in TAE (40 mM Tris-acetate, 2 mM EDTA).
(§8) Data acquisition and analysis. Due to the high molecular mass, kDNA could not enter an agarose gel under normal electrophoresis conditions, but remained in the wells. In the presence of Topo IV topoisomerase mini-circles (2.5 Kb) were released from kDNA by decatenation and were quickly and easily resolved in the gel at relatively high voltages.
(§9) Bands were visualized by ethidium bromide staining (dil 1:20000) for 30 minutes followed by destaining in distilled water for 10 minutes.
(§10) For single concentration screening assay, in order to evaluate the compounds activity on the enzymes, the bands of decatenated DNAs in the gel were photographed by a digital imaging system ImageQuant LAS 4000 (GE Healthcare) according to manufacturer's instructions.
(§11) The fluorescent intensity of each band was analyzed by ImageQuant TL software and it was expressed as volume (volume of the uncalibrated quantity of material in the image feature after subtraction of the background intensity by using rolling ball method).
(§12) Each band intensity was compared, as percentage, to vehicle sample band intensity, which served as positive control, on the same gel.
(§13) Inhibitory activity was expressed as percent of inhibition versus the positive control.
(§14) The supercoiled or decatenated DNA bands obtained as described in Example 1 were analysed as follows.
(§15) Bands were analyzed by gel documentation equipment (Syngene, Cambridge, UK) and quantitated using Syngene Gene Tools software. Raw gel data (fluorescent band volumes) collected from Syngene, GeneTools gel analysis software were converted to a percentage of the 100% control (the fully supercoiled or decatenated DNA band). […] The IC50 data were calculated by using the global curve fit non-linear regression tool by selecting the Single, 2 Parameter fit function from the Exponential Decay equation category.

S. aureus DNA gyrase = target: T2, S. aureus DNA gyrase (Staphylococcus aureus, UniProt P0A0K8+P20831); assay: DNA gyrase supercoiling assay (S. aureus); conditions: for inhibition at 50 µM: S. aureus, conc. 50 μM, n/a = not active
T2 construct: purchased Inspiralis, UK
T2 sequence (P0A0K8 whole entry): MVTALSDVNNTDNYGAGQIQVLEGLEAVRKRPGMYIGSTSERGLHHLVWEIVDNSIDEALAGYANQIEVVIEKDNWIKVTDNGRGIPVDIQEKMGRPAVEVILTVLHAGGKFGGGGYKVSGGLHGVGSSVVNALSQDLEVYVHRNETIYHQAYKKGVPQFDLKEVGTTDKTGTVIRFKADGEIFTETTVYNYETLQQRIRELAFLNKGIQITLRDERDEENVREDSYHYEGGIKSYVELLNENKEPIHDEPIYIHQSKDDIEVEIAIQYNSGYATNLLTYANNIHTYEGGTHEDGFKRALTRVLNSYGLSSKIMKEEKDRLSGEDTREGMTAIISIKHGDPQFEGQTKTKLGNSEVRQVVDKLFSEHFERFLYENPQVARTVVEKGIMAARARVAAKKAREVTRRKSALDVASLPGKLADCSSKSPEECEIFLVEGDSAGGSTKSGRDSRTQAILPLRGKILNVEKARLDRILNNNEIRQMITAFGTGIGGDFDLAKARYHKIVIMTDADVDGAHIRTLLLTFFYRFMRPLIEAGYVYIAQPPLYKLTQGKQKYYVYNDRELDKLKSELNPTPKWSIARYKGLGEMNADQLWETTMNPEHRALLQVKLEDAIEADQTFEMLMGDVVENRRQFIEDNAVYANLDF
T2 sequence (P20831 whole entry): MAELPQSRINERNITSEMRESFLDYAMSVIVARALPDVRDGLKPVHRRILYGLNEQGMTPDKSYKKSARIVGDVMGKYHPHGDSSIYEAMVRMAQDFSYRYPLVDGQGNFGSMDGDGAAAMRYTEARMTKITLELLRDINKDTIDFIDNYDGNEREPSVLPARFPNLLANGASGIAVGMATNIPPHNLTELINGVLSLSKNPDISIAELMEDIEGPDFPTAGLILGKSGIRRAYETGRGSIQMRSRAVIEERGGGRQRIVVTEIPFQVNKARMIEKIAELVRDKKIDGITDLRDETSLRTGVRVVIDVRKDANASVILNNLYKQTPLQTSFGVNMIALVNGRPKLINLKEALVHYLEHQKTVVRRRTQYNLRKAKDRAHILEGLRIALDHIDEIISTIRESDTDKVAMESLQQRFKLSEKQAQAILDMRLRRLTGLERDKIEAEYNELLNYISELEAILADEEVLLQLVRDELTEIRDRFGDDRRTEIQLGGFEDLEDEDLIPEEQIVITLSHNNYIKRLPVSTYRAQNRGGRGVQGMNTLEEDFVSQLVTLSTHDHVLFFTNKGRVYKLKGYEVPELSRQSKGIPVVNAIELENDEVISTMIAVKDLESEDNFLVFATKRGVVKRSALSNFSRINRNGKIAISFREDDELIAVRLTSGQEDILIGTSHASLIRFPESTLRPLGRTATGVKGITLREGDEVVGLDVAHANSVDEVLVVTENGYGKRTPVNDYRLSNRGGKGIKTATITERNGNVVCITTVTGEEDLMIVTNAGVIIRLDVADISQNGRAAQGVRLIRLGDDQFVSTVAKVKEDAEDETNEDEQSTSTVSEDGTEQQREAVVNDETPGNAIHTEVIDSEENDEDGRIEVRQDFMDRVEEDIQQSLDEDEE
Procedure: as §1, §2, §3
(§16) Reagents from S. aureus and E. coli Gyrase Supercoiling Assay kits (Inspiralis, UK) were used. A master mix with a total volume sufficient for the number of reactions to perform was prepared with the following reagents: 5× assay buffer, relaxed pBR322 substrate (0.5 μg/reaction), RNase-DNase free water. Aliquotes of this mix were dispensed in each tube, then 10× compound stock solutions or vehicle control (DMSO), were added to each reaction tube.
(§17) Reaction was started with E. Coli (2 U/reaction) or S. aureus (1 U/reaction) gyrase enzyme addition.
as §6
(§18) The reaction tubes were gentle vortexed and incubated 30 minutes at 37° C. Each reaction was stopped by adding 30 μl of Stop Buffer and 30 μl chloroform/isoamyl alcohol (24/1), briefly vortexed for 5-10 seconds and centrifuged at 20000×g for 2 minutes. Samples were loaded onto 1% agarose gel and subjected to electrophoresis for 1 hour at 80V constant voltage in TAE (40 mM Tris-acetate, 2 mM EDTA).
(§19) Data acquisition and analysis. Treatment of relaxed pBR322 with DNA gyrase converted the relaxed topoisomers (DNAs of different linking number) to the supercoiled form of the plasmid, which migrates faster on an agarose gel. An upper band might also be visible, which consists of open-circular (nicked) DNA which is present in the relaxed substrate but co-migrates with some of the relaxed topoisomers.
(§20) Bands were visualized by ethidium bromide staining (dilution 1:20000) for 30 minutes followed by destaining in distilled water for 10 minutes.
(§21) In order to evaluate the compounds activity on the enzyme, the bands of supercoiled DNAs in the gel were photographed by a digital imaging system ImageQuant LAS 4000 (GE Healthcare) according to manufacturer's instructions.
as §11, §12, §13, §14, §15

[1] = target: T3, S. aureus Topoisomerase IV (Staphylococcus aureus, UniProt P0C1S7+P0C1U9); assay: Topoisomerase IV decatenation assay (S. aureus); conditions: for inhibition at 50 µM: read-out: % inhibition Topo IV
T3 construct: purchased Inspiralis, UK
T3 sequence (P0C1S7 whole entry): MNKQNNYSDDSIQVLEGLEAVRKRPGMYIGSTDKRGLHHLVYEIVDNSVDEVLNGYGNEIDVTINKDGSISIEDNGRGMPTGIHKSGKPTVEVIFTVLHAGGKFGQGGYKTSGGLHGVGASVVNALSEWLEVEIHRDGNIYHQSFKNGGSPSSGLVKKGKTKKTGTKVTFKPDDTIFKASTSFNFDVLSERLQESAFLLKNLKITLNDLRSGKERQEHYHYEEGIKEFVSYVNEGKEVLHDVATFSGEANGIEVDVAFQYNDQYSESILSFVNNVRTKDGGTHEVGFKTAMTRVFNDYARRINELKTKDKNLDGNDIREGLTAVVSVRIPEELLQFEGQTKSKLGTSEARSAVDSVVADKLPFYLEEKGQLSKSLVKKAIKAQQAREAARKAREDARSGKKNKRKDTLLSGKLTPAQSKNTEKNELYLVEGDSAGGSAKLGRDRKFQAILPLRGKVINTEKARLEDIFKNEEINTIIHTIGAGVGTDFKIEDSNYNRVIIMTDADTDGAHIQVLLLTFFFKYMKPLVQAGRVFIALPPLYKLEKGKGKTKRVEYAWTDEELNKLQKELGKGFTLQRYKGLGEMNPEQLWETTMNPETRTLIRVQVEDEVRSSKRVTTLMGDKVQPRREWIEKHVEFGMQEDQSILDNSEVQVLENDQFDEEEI
T3 sequence (P0C1U9 whole entry): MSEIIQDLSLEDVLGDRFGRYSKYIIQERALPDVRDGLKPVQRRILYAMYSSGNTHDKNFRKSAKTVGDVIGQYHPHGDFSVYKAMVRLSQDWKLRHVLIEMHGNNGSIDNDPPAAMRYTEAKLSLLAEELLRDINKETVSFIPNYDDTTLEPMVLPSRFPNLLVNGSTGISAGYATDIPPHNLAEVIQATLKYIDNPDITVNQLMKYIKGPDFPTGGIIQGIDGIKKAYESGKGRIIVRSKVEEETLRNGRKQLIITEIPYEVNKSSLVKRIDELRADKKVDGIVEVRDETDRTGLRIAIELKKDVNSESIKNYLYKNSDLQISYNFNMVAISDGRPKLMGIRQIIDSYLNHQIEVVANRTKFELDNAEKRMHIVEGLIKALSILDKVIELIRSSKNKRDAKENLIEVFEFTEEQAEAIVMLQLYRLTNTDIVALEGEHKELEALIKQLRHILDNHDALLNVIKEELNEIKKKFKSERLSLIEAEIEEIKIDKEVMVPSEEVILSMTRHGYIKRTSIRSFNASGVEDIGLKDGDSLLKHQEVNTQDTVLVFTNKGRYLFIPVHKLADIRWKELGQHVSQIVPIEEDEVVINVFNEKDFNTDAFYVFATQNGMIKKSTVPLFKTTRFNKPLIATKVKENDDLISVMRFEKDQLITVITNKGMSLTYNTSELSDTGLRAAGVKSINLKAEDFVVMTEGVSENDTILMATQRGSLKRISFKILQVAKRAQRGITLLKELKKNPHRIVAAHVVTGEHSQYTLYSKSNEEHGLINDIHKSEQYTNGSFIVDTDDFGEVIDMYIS
Procedure: as §1, §2, §3, §4, §5, §6, §7, §8, §9, §10, §11, §12, §13, §14, §15

E. coli DNA gyrase = target: T4, E. coli DNA gyrase (Escherichia coli, UniProt P0AES4+P0AES6); assay: DNA gyrase supercoiling assay (E. coli); conditions: for inhibition at 50 µM: E. coli, conc. 50 μM, n/a = not active
T4 construct: purchased Inspiralis, UK
Procedure: as §1, §2, §3, §16, §17, §6, §18, §19, §20, §21, §11, §12, §13, §14, §15

[2] = S. aureus, concentration-response curve, eight half-log concentrations 0.1 to 300 μM, read-out: IC50 Topo IV
[3] = S. aureus, conc. 50 μM, n/a = not active

T1 sequence (P20083 whole entry): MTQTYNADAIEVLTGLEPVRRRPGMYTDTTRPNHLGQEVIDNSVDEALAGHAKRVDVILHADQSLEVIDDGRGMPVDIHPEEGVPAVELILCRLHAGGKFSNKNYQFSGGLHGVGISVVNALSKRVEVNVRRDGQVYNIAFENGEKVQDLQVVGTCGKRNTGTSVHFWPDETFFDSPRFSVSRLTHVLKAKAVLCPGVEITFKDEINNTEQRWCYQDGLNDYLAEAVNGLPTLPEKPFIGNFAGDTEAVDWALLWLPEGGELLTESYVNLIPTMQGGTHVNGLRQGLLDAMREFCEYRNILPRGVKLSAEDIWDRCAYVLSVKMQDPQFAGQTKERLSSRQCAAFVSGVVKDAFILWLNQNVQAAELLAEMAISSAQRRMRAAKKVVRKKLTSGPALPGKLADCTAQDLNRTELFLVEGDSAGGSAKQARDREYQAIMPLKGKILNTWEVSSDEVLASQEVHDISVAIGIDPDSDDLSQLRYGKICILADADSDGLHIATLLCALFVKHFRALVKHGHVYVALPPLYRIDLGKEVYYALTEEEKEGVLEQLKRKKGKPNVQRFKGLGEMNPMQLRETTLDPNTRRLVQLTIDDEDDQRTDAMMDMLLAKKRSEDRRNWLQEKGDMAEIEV
T1 sequence (P0AFI2 whole entry): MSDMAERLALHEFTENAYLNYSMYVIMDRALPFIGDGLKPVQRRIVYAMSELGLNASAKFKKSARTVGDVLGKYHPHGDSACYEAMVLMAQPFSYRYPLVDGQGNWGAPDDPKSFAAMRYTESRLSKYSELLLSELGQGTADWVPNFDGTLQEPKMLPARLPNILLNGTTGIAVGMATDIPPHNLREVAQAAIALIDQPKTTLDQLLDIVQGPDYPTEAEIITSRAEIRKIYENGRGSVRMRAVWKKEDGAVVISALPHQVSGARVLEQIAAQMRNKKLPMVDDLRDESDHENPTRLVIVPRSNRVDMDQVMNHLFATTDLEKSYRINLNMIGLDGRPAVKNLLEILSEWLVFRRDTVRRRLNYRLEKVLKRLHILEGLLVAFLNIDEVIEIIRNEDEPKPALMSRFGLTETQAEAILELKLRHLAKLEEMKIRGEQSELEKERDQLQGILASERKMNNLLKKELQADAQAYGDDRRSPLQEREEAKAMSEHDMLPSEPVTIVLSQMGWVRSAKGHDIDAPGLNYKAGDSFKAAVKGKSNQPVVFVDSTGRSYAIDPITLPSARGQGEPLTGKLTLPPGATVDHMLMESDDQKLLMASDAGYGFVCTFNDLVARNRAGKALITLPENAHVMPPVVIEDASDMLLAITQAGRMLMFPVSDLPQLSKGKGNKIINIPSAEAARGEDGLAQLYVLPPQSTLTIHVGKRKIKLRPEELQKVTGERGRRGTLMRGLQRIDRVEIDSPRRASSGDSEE

SMILES	IC50 (E. coli Topoisomerase IV)	inhibition at 50 µM (E. coli Topoisomerase IV)	IC50 (S. aureus DNA gyrase)	inhibition at 50 µM (S. aureus DNA gyrase)	IC50 [1, 2]	inhibition at 50 µM [1]	IC50 (E. coli DNA gyrase)	inhibition at 50 µM (E. coli DNA gyrase)	IC50 [1]	inhibition at 50 µM [1, 3]
O=c1oc2ccccc2c2[nH]c(C(O)CN3CCN(c4nccc5ccc(F)cc45)CC3)nc12 (stereo not drawn) [Compound 152, 2-{2-[4-(7-fluoroisoquinolin-1-yl)piperazin-1-yl]-1-hydroxyethyl}[1]benzopyrano[3,4-d]imidazol-4(1H)-one hydrochloride]	850 nM	100%	310 nM	100%	530 nM	88%	660 nM	88%		
O=c1oc2ccccc2c2[nH]c(CNC3CCN(c4nccc5ccc(F)cc45)CC3)c(C(F)(F)F)c12 [Compound 153, 2-({[1-(7-fluoroisoquinolin-1-yl)piperidin-4-yl]amino}methyl)-3-(trifluoromethyl)[1]benzopyrano[4,3-b]pyrrol-4(1H)-one]	1340 nM	50%	490 nM	100%			1420 nM	72%	2300 nM	61%
O=c1nc(NCC(O)CN2CCN(c3nc(F)cc4ccc(OC(F)(F)F)cc34)CC2)c2cc(F)ccc2o1 (stereo not drawn) [Compound 155, 6-fluoro-4-[(3-{4-[3-fluoro-7-(trifluoromethoxy)isoquinolin-1-yl]piperazin-1-yl}-2-hydroxypropyl)amino]-2H-1,3-benzoxazin-2-one]		0%	8740 nM	50%	7210 nM		6310 nM	60%		50%
O=c1nc(NCC(O)CN2CCN(c3nccc4nccnc34)CC2)c2cc(F)ccc2o1 (stereo not drawn) [Compound 156, 6-fluoro-4-((2-hydroxy-3-(4-(pyrido[3,4-b]pyrazin-5-yl)piperazin-1-yl)propyl)amino)-2H-benzo[e][1,3]oxazin-2-one]	640 nM	91%	1760 nM	89%	1250 nM		2740 nM	78%		86%
NC(CN1CCN(c2nccc3ccc(F)cc23)CC1)c1nc2c(=O)oc3ccccc3c2[nH]1 (stereo not drawn) [Compound 158, 2-{1-amino-2-[4-(7-fluoroisoquinolin-1-yl)piperazin-1-yl]ethyl}[1]benzopyrano[3,4-d]imidazol-4(1H)-one hydrochloride]	920 nM	97%	860 nM	100%	2130 nM	100%	1860 nM	95%		
O=CNC(CN1CCN(c2nccc3ccc(F)cc23)CC1)c1nc2c(=O)oc3ccccc3c2[nH]1 (stereo not drawn) [Compound 159, N-{2-[4-(7-fluoroisoquinolin-1-yl)piperazin-1-yl]-1-(4-oxo-1,4-dihydro[1]benzopyrano[3,4-d]imidazol-2-yl)ethyl}formamide hydrochloride]	1040 nM	98%	510 nM	100%	1090 nM	100%	1650 nM	94%		
O=c1nc(NCC(O)CN2CCN(c3nccc4ncc(F)cc34)CC2)c2cc(F)ccc2o1 (stereo not drawn) [Compound 162, 6-fluoro-4-({3-[4-(3-fluoro-1,6-naphthyridin-5-yl)piperazin-1-yl]-2-hydroxypropyl}amino)-2H-1,3-benzoxazin-2-one]	950 nM	100%	880 nM	100%	310 nM		4850 nM	95%		100%
O=c1nc(NCC(O)CN2CCN(c3nccc4ncc(C(F)(F)F)cc34)CC2)c2cc(F)ccc2o1 (stereo not drawn) [Compound 163, 6-fluoro-4-[(2-hydroxy-3-{4-[3-(trifluoromethyl)-1,6-naphthyridin-5-yl]piperazin-1-yl}propyl)amino]-2H-1,3-benzoxazin-2-one]	9890 nM	90%	82700 nM	30%	1220 nM		4400 nM	80%		100%
O=c1cc(NCC(O)CN2CCN(c3nccc4ncccc34)CC2)c2cc(F)ccc2o1 (stereo not drawn) [Compound 166, 6-fluoro-4-({2-hydroxy-3-[4-(1,6-naphthyridin-5-yl)piperazin-1-yl]propyl}amino)-2H-1-benzopyran-2-one]	200 nM	90%	1130 nM	70%	300 nM	97%	150 nM	80%		
COC1CN(c2nccc3ccc(F)cc23)CCC1NCc1cc2c(=O)oc3ccccc3c2[nH]1 (stereo not drawn) [Compound 171, 2-({[1-(7-fluoroisoquinolin-1-yl)-3-methoxypiperidin-4-yl]amino}methyl)[1]benzopyrano[4,3-b]pyrrol-4(1H)-one]		97%		100%				93%		72%
O=c1oc2ccccc2c2[nH]c(CNC3CCN(c4nccc5ccc(F)cc45)CC3F)cc12 (stereo not drawn) [Compound 172, 2-({[3-fluoro-1-(7-fluoroisoquinolin-1-yl)piperidin-4-yl]amino}methyl)[1]benzopyrano[4,3-b]pyrrol-4(1H)-one]		89%		64%				94%		39%
CC1CN(c2nccc3ccc(F)cc23)CCC1NCc1cc2c(=O)oc3ccccc3c2[nH]1 (stereo not drawn) [Compound 177, 2-({[1-(7-fluoroisoquinolin-1-yl)-3-methylpiperidin-4-yl]amino}methyl) [1]benzopyrano[4,3-b]pyrrol-4(1H)-one]		74%		98%				77%		14%
O=c1oc2ccccc2c2[nH]c(CNC3CCN(c4nccc5ccc(F)cc45)CC3O)cc12 (stereo not drawn) [Compound 186, 2-({[1-(7-fluoroisoquinolin-1-yl)-3-hydroxypiperidin-4-yl]amino}methyl)[1]benzopyrano[4,3-b]pyrrol-4(1H)-one]		54%		100%				70%		87%

Source: patent publication US10221144B2, “Antibacterial compounds having broad spectrum of activity” (priority 2014, dated 2019)
